These results are taken from EP3839043A1, “SCREENING METHODS FOR COMPOUNDS MODULATING POLYAMINE TRANSPORT” (Katholieke Universiteit Leuven, priority 2019, dated 2021).

Structures can show the parent of a compound that is named as a salt.

The first test has as its target T1, Microsomal ATP13A2 (Homo sapiens, UniProt Q9NQ11).
T1 construct: expressed in transfected cells; host or cells: SH-SY5Y human neuroblastoma cells, lentiviral transduction; microsomes solubilised with DDM
T1 sequence (Q9NQ11 1-1175 isoform Q9NQ11-3): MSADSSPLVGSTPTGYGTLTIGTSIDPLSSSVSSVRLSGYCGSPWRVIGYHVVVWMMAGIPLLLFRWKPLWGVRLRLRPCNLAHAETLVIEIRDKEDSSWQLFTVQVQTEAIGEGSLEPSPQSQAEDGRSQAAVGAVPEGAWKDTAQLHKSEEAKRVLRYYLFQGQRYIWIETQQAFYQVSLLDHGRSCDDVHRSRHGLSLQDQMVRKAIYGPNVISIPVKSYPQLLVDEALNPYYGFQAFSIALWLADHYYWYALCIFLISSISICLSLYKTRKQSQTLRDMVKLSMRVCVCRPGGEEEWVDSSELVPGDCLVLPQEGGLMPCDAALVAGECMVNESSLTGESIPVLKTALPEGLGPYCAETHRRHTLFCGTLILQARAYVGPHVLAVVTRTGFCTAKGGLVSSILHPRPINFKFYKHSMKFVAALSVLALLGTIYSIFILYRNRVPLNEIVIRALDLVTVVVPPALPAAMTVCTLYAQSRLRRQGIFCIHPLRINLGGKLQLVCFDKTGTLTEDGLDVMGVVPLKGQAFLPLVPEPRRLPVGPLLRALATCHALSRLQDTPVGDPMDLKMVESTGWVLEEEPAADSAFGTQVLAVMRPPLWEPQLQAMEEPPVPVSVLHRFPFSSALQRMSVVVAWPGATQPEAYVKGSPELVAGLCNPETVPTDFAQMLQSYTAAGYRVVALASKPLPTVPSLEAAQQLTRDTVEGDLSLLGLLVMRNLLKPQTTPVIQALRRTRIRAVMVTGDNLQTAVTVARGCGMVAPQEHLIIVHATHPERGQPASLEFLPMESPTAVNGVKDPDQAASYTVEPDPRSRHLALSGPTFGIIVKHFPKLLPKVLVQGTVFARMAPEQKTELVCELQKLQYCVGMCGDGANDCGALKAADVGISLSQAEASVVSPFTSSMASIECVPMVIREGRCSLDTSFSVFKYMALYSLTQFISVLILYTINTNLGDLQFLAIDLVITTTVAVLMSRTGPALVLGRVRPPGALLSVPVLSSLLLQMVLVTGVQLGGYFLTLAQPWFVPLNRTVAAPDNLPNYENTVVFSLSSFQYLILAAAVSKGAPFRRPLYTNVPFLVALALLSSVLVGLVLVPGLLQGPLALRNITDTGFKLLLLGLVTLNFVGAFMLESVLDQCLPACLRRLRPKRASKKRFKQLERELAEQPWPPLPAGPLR
The test can be described thus: ATPase assay (ADP-Glo Max), solubilized microsomes of SH-SY5Y cells overexpressing ATP13A2 WT. It counts as biochemical. The conditions noted are these: 100 nM CaCl2, MnCl2, ZnCl2 or FeCl3; 100 µM SPD or SPM. On the procedure: Membrane fractionation - Transduced SH-SY5Y cells were seeded in […] at a density of 6 x 10^6 cells per plate. 24 h later, the cells were harvested following trypsinization and brief centrifugation (300 x g, 5 min). Subcellular fractionation was performed by differential centrifugation. The microsomal protein concentration was measured using the bicinchoninic acid assay (Thermo Fischer Scientific, Pierce) according to the manufacturer's instructions.
ATPase assay - The ATPase activity of ATP13A2 was assessed using a commercially available luminescence assay (ADP-Glo Max assay, Promega) that monitors the production of ADP via luciferase activity. The reactions were performed for 30 min (37°C) in a final volume of 25 µl. […] The assay was started by the addition of 5 mM ATP and was terminated by adding 25 µl of ADP-Glo Reagent. The 96-well plate was then incubated for 40 min at room temperature, followed by the addition of 50 µl of ADP-Glo Max Detection Reagent. After 40 min, luminescence was detected using a FlexStation 3.0 system (Molecular Devices). Dose-response curves and n/Km/Vmax values were calculated using GraphPad Prism Software (GraphPad Software Inc.).
A general note: ADP-Glo first removes unused ATP, then detects ADP through luciferase.
Turning to `[Ca+2].[Cl-].[Cl-]` [CaCl2], the “ATPase activity of ATP13A2 WT, screen for candidate substrates” value is on record as “had no effect”.

Turning to `[Cl][Fe]([Cl])[Cl]` [FeCl3], the “ATPase activity of ATP13A2 WT, screen for candidate substrates” value was “did not increase ATP13A2 activity”. Still for that read-out and setting: then `[Cl][Mn][Cl]` [MnCl2], with “did not increase ATP13A2 activity”; and `[Cl-].[Cl-].[Zn+2]` [ZnCl2], with “did not increase ATP13A2 activity”.

Staying with this test, now noted: Microsomal ATP13A2.
As to `CC(=O)NCCCNCCCCNCCCN` [N1-acetylspermine, N^1-acetylspermine trihydrochloride], the “Vmax ± SEM” value is 98 ± 5 nmol ADP/mg/min.

The test is the same for the next values; noted with them: indicated doses; microsomes 5 µg.
With `CC(=O)NCCCNCCCCNCCCN` [N1-acetylspermine, N^1-acetylspermine trihydrochloride], the “ATPase activity of ATP13A2, dose-response” value was “stimulate ATPase activity in a concentration-dependent manner”. As for `N=C(N)NCCCCN.O=S(=O)(O)O` [agmatine, agmatine sulfate salt], the “ATPase activity of ATP13A2, dose-response” value is given as “did not induce ATP13A2 activity”.

Consider `NCCCCCN` [cadaverine], for which the “ATPase activity of ATP13A2, dose-response” value is “did not induce ATP13A2 activity”.

Consider `Cl.NCCc1ccc(O)c(O)c1` [dopamine, dopamine hydrochloride], for which the “ATPase activity of ATP13A2, dose-response” value was “did not induce ATP13A2 activity”. `NCCc1c[nH]cn1` [histamine]: the “ATPase activity of ATP13A2, dose-response” value is on record as “did not induce ATP13A2 activity”.
